Drawing on ChEMBL document CHEMBL1275418, “IMP-15-producing Pseudomonas aeruginosa strain isolated in a U.S. medical center: a recent arrival from Mexico” (2008), this text covers MIC for nine compounds.

A value given as a limit tells only on which side of the number the result lay.

Type in all cases: functional
Experiment [1] deals with Pseudomonas aeruginosa. The experiment is described as follows: Antibacterial activity against Pseudomonas aeruginosa 1750J expressing beta-lactamase IMP-15 by Etest.
Experiment [2] relates to Pseudomonas aeruginosa. The experiment is described as follows: Antibacterial activity against Pseudomonas aeruginosa 1750J expressing beta-lactamase IMP-15 by Etest in presence of beta-lactamase inhibitor Tazobactam.
Experiment [3] relates to Pseudomonas aeruginosa. Put plainly: Antibacterial activity against Pseudomonas aeruginosa isolates by Etest.
In experiment [4] the test system is Pseudomonas aeruginosa. The experiment is described as follows: Antibacterial activity against Pseudomonas aeruginosa 1750J expressing beta-lactamase IMP-15 by Etest in presence of EDTA.

As usually defined, the MIC is the smallest concentration in the dilution series that meets the test's criterion for growth inhibition. Compound `C[C@@H](O)[C@H]1C(=O)N2C(C(=O)O)=C(S[C@@H]3CN[C@H](C(=O)Nc4cccc(C(=O)O)c4)C3)[C@H](C)[C@H]12` [ERTAPENEM] had an MIC with Pseudomonas aeruginosa [1] of more than 32 µg/mL.

GENTAMICIN: the MIC against Pseudomonas aeruginosa [1] is more than 256 µg/mL.

In the experiment with Pseudomonas aeruginosa [1], `NC[C@H]1O[C@H](O[C@H]2[C@H](O)[C@@H](O[C@H]3O[C@H](CO)[C@@H](O)[C@H](N)[C@H]3O)[C@H](N)C[C@@H]2N)[C@H](N)C[C@@H]1O` [TOBRAMYCIN] gave an MIC of more than 256 µg/mL.

Take `CCN1CCN(C(=O)N[C@@H](C(=O)N[C@@H]2C(=O)N3[C@@H]2SC(C)(C)[C@@H]3C(=O)O)c2ccccc2)C(=O)C1=O` [PIPERACILLIN]: the MIC in the experiment with Pseudomonas aeruginosa [2] was more than 256 µg/mL.

With `C[C@@H](O)[C@H]1C(=O)N2C(C(=O)O)=C(SCCNC=N)C[C@H]12` [IMIPENEM ANHYDROUS], the MIC is more than 32 µg/mL with Pseudomonas aeruginosa [1] and not below 8 µg/mL against Pseudomonas aeruginosa [3].

As to `O=C(O)C1=CC[C@@H]2CC(=O)N12` [CARBAPENEM], the MIC in the experiment with Pseudomonas aeruginosa [4] was 8 µg/mL; against Pseudomonas aeruginosa [3] it was more than 256 µg/mL.

On to `CC(C)(O/N=C(\C(=O)N[C@@H]1C(=O)N2C(C(=O)[O-])=C(C[n+]3ccccc3)CS[C@H]12)c1csc(N)n1)C(=O)O` [CEFTAZIDIME], for which the results for the MIC in the experiment with Pseudomonas aeruginosa [1] and against Pseudomonas aeruginosa [3] were more than 256 µg/mL and not below 16 µg/mL, respectively.

For `C[C@@H](O)[C@H]1C(=O)N2C(C(=O)O)=C(S[C@@H]3CN[C@H](C(=O)N(C)C)C3)[C@H](C)[C@H]12` [MEROPENEM], the MIC against Pseudomonas aeruginosa [1] was more than 32 µg/mL; with Pseudomonas aeruginosa [3], not below 8 µg/mL.

In the case of `O=C(O)c1cn(C2CC2)c2cc(N3CCNCC3)c(F)cc2c1=O` [CIPROFLOXACIN], in the experiment with Pseudomonas aeruginosa [1], the MIC was more than 32 µg/mL.
